{"source": "patent US20240074473A1", "about": "“METHOD FOR INDUCING HYPERTROPHIC MUSCLE FIBERS FOR INDUSTRIAL MEAT PRODUCTION” (Yeda Research and Development Co. Ltd., priority 2021, published 2024)", "key": {"chicken myoblasts [1]": {"test_system": "chicken myoblasts", "assay": "qRT-PCR gene expression in chicken myoblasts", "type": "cell-based", "method": "(§1) Quantitative real-time PCR (qRT-PCR). Total RNA was isolated using Tri-Reagent (SIGMA) according to the manufacturer's instructions. cDNA was synthesized with the High Capacity cDNA Reverse Transcription Kit (Applied Biosystems according to the manufacturer's instructions. qRT-PCR was performed with SYBR green PCR Master Mix (Applied Biosystems) using the StepOnePlus Real-time PCR system (Applied Biosystems). Values for specific genes were normalize to either Gapdh or Hprt housekeeping control as indicated in Figure legend. Expression was calculated using the ddCT method.\n(§2) Chicken primary derived myoblasts were used as a model to evaluate the efficiency of SCH772984 as the ERKi, compared to conventional differentiation medium (DM) for the purpose of producing muscle (meat) in tissue culture conditions. Chicken myoblasts were isolated from chicken embryos and expanded in proliferation medium. When sufficient cell numbers were acquired, cells were seeded on tissue culture plates and allowed to adhere for 24 hours. Then medium was changed to either PM supplemented with ERKi or DM. At 24-hours post treatment, the cells that received ERKi were replenished with fresh PM (without the addition of more ERKi), and DM treated cells were replenished with fresh DM. Media was replaced daily over a period of 72 hours."}, "CaMKII": {"test_system": "CaMKII", "assay": "Western blot of CaMKII activation (p-CaMKII T287) in myoblasts", "type": "cell-based, mouse", "method": "Western Blot analysis. Cultured cells and whole tissues extracts were prepared with RIPA buffer supplemented with protease inhibitor cocktail (SIGMA P8340), and phosphatase inhibitor cocktails (SIGMA P5726 and P0044). Western blotting was performed using the Mini-PROTEAN Tetra Cell electrophoresis system, and transferred to PVDF membranes. The following primary antibodies concentrations were used p-CAMKII 1:1000 (Abcam ab182647), CaMKII 1:1000 (Cell Signaling 3362), GAPDH 1:10,000 (Abcam ab181602), p-ERK1/2 1:20,000 (SIGMA M9692), ERK1/2 1:40,000 (SIGMA), Myosin Heavy Chain (MF-20 DSHB hybridoma supernatant 1:100) Horseradish peroxidase conjugated secondary anti-mouse, anti-rabbit or anti-goat was used to detect proteins (Jackson Immunology). Western blots were imaged using the Chemidoc Multiplex system (Bio-rad)."}, "ovine myoblasts": {"test_system": "ovine myoblasts", "assay": "Live imaging of fusion in ovine myoblasts", "type": "cell-based", "conditions": "sheep derived myoblasts, 1 μM", "method": "Bovine myoblasts were seeded in equal number in 96-well plates and the following day treated either with PM, PM supplemented with 0.5 uM SCH 772984 (ERKi) or differentiation media (DM). Media was replenished daily either with fresh PM or DM (ERKi was not added again). At 72 hours post treatment, cells were fixed and stained for myosin heavy chain, and several fields per condition were imaged. Nuclei per fiber was quantified per field to result in a fusion index. For ovine myoblasts—equal number of cells were seeded in an 8 well chamber slide for 24 hours. The following day cells were treated with either with 1 uM SCH 772984 (ERKi) or differentiation media (DM), supplemented with 100 nM of Sir-Actin reagent, then incubated for 4 hours and then the slide was transferred to a heated and CO2 chambered microscope unit. Several fields of view were selected and live imaging was performed by capturing images of each field every 7 minutes. The series of images for each treatment over a period of 31 hours was stacked into a movie file using ImageJ."}, "primary mouse myoblasts": {"test_system": "primary mouse myoblasts", "assay": "qRT-PCR gene expression in primary mouse myoblasts", "type": "cell-based", "method": "as §1\nFirst passage primary mouse derived myoblast were seeded in proliferation media, in equal number in 12-well tissue culture plates that were precoated with 10% Matrigel solution. Following 24 hours to allow for complete attachment, culture media was washed and replaced either with fresh proliferation media (PM), PM supplemented with 1 uM SCH 772984 (ERKi) or differentiation media (DM). After 24 hrs, cells were lysed and RNA was collected. Gene expression analysis was carried out using SYBR green qRT-PCR analysis."}, "chicken myoblasts [2]": {"test_system": "chicken myoblasts", "assay": "Immunofluorescence of sarcomeric proteins in chicken myotubes", "type": "cell-based", "conditions": "48 hours post treatment", "method": "as §2"}}, "data": [{"smiles": "O=C(Nc1ccc2[nH]nc(-c3ccncc3)c2c1)[C@@H]1CCN(CC(=O)N2CCN(c3ccc(-c4ncccn4)cc3)CC2)C1", "note": "[SCH772984]", "values": [{"measurement": "Gene expression of maturation/differentiation markers mrf4, myh1, myh2, tnnt3 compared with DM", "setting": "chicken myoblasts [1]", "value": "elevated gene expression"}, {"measurement": "Downregulation of Myf5 expression compared to DM", "setting": "chicken myoblasts [1]; 72 hour timecourse", "value": "stronger across all time points"}, {"measurement": "Pax7 RNA expression", "setting": "chicken myoblasts [1]; 72 hour timecourse", "value": "reduction"}, {"measurement": "Time of CaMKII activation post ERKi treatment", "setting": "CaMKII; 1 μM ERKi time-course", "value": "≤ 16", "unit": "h"}, {"measurement": "CaMKII activation (p-CaMKII T287)", "setting": "CaMKII; treatment of myoblasts with ERKi, 24 hours", "value": "activated"}, {"measurement": "Fusion and myotube formation compared to DM", "setting": "ovine myoblasts", "value": "significantly more fusion and myotube formation"}, {"measurement": "Expression of Ryr1, Ryr3, SERCA1/2, Orai and STIM", "setting": "primary mouse myoblasts; ERKi 24 hrs vs Ctrl", "value": "upregulated"}, {"measurement": "Expression of differentiation and fusion factors MyoD, MyoG, Mymk, Mymx", "setting": "primary mouse myoblasts; ERKi in growth medium, time course", "value": "upregulated"}, {"measurement": "Expression of maturation markers myosin heavy chain and troponin compared to DM", "setting": "primary mouse myoblasts; mouse myoblasts, 1 uM ERKi in PM, 24 hrs", "value": "stronger expression"}, {"measurement": "Sarcomeric structure (striation of actinin, troponin, phalloidin signals)", "setting": "chicken myoblasts [2]", "value": "sarcomeric structure is already apparent"}]}]}
